Experimental data from patent publication US10596151B2, “Methods and pharmaceutical compositions for reducing arterial stiffness with a combination of a therapeutic agent blocking the angiotensin receptor and a therapeutic agent inhibiting the NEP enzyme” (Novartis AG, priority 2015, dated 2020).
Marks after values point to notes of the source that are not given here.

Key:
[1] = tested on: elderly patients (≥60 years) with essential hypertension; assay: […] study: carotid-femoral aortic pulse wave velocity (SphygmoCor X-CEL); format: in vivo, human; conditions: for Change from baseline to 12 weeks, PWV / Change from baseline to 52 weeks, PWV: pulse wave velocity; for Change from baseline to 12 weeks, PWV: Week 12 endpoint, n = 192 LCZ696, n = 196 olmesartan; for Change from baseline to 52 weeks, PWV: week 52 endpoint, n = 199 both treatments
Description: In the context of the present invention PWV is measured as aortic PWV=aPWV. One system to measure aPWV is the SphygmoCor X-CEL system which measures the carotid-femoral aPWV, as the speed of the arterial pressure waveform as it travels through the descending aorta to the femoral artery, which is detected from simultaneously measured carotid and femoral arterial pulses. The carotid pulse is detected by applanation tonometry using a high-fidelity pressure transducer (Millar Instruments, Houston, Tex.), while the femoral pulse is detected using a partially inflated blood pressure cuff wrapped around the upper thigh. The distance travelled by the pulse wave is captured by making physical measurements on the body surface according to the manufacturer's recommendations. […] [Butlin M, Qasem A, Avolio A P. Estimation of central aortic pressure waveform features derived from the brachial cuff volume displacement waveform. Conf Proc IEEE Eng Med Biol Soc 2012; 2012:2591-4]
The study enrolled patient from 5 Dec. 2012 to 8 Apr. 2015.
The SphygmoCor X-CEL system also measures the carotid-femoral aPWV, as the speed of the arterial pressure waveform as it travels through the descending aorta to the femoral artery, which is detected from simultaneously measured carotid and femoral arterial pulses. The carotid pulse is detected by applanation tonometry using a high-fidelity pressure transducer (Millar Instruments, Houston, Tex.), while the femoral pulse is detected using a partially inflated blood pressure cuff wrapped around the upper thigh. The distance traveled by the pulse wave is captured by making physical measurements on the body surface according to the manufacturer's recommendations.

[2] = tested on: patients with mild-to-moderate essential hypertension; conditions: LCZ696 100, 200 and 400 mg once daily; cited from earlier work
[3] = tested on: patients with heart failure with preserved ejection fraction; conditions: cited from earlier work

Compound	Change from baseline to 12 weeks, PWV [1]	Change from baseline to 52 weeks, PWV [1]	Between-treatment difference, PWV, 12 weeks ([1]; LCZ696 regimen vs olmesartan regimen, 12 weeks)	Between-treatment difference, PWV, 52 weeks ([1]; LCZ696 regimen vs olmesartan regimen, 52 weeks)	reduction of PWV in subgroup of patients with high baseline PWV ([1]; ad-hoc analysis, vs olmesartan regimen, both Week 12 and 52)	difference in carotid-femoral PWV between the two regimens ([1]; both Week 12 and 52, LCZ696 vs olmesartan regimen)	BP reductions vs corresponding doses of valsartan alone (160 and 320 mg) [2]	tolerability [2]	reduction of NT-proBNP vs valsartan alone ([3]; at 12 weeks)	tolerability ([3]; heart failure with preserved ejection fraction)
CCCc1nc(C(C)(C)O)c(C(=O)O)n1Cc1ccc(-c2ccccc2-c2nnn[nH]2)cc1 [Olmesartan, reference compound]	−0.6	−0.8	–	–	–	–	–	–	–	–
CCCCC(=O)N(Cc1ccc(-c2ccccc2-c2nn[n-]n2)cc1)C(C(=O)[O-])C(C)C.CCCCC(=O)N(Cc1ccc(-c2ccccc2-c2nn[n-]n2)cc1)C(C(=O)[O-])C(C)C.CCOC(=O)C(C)CC(Cc1ccc(-c2ccccc2)cc1)NC(=O)CCC(=O)[O-].CCOC(=O)C(C)CC(Cc1ccc(-c2ccccc2)cc1)NC(=O)CCC(=O)[O-].O.O.O.O.O.[Na+].[Na+].[Na+].[Na+].[Na+].[Na+] [LCZ696, trisodium [3-((1S,3R)-1-biphenyl-4-ylmethyl-3-ethoxycarbonyl-1-butylcarbamoyl) propionate-(S)-3′-methyl-2′-(pentanoyl{2″-(tetrazol-5-ylate)biphenyl-4′-ylmethyl}amino)butyrate]hemipentahydrate]	−0.7	−0.8	−0.1 (0.17)*	−0.1 (0.18)	tended to reduce PWV to a greater extent than olmesartan regimen	no significant difference	greater BP reductions than corresponding doses of valsartan alone	well tolerated	to a greater extent than valsartan alone	well tolerated
